Measurements as given in ChEMBL document CHEMBL1201862, “PubChem BioAssay data set” (2004).
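Cultured in 96-well plates, cells were exposed to test compound for 48 hours across five concentrations. The concentration for 50% growth inhibition is given as GI50.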 Active and inactive are the calls of the source. Cut-off read from the data, not from the text of the source: active = GI50 up to about 1.1 µM and inactive = higher.

What was measured:
Test in all cases: NCI anticancer screen, dose series, 48 h
[1] = tested on: MDA-MB-435
[2] = tested on: HT-29
[3] = tested on: Hs-578T
[4] = tested on: NCI-H23
[5] = tested on: ACHN
[6] = tested on: TK-10
[7] = tested on: A498
[8] = tested on: SNB-75
[9] = tested on: SF-539
[10] = tested on: EKVX
[11] = tested on: MOLT-4
[12] = tested on: HCC 2998
[13] = tested on: SN12C
[14] = tested on: MDA-MB-231
[15] = tested on: OVCAR-4
[16] = tested on: HCT-116
[17] = tested on: CCRF-CEM
[18] = tested on: UACC-62
[19] = tested on: OVCAR-3
[20] = tested on: UO-31

Structure (SMILES) | GI50 [1] | GI50 [2] | GI50 [3] | GI50 [4] | GI50 [5] | GI50 [6] | GI50 [7] | GI50 [8] | GI50 [9] | GI50 [10] | GI50 [11] | GI50 [12] | GI50 [13] | GI50 [14] | GI50 [15] | GI50 [16] | GI50 [17] | GI50 [18] | GI50 [19] | GI50 [20]
COc1cc(Nc2ccc3c(c2)CCC3)nc(OC)n1 | > 100 µM (inactive) | 19.9 µM (inactive) | 6.58 µM (inactive) | 36 µM (inactive) | 28.2 µM (inactive) | 28.2 µM (inactive) | 24.3 µM (inactive) | 18.9 µM (inactive) | 38.9 µM (inactive) | 17.1 µM (inactive) | 0.0144 µM (active) | 29.7 µM (inactive) | 30.2 µM (inactive) | 38.5 µM (inactive) | 33.3 µM (inactive) | 38.2 µM (inactive) | 49.7 µM (inactive) | 51.3 µM (inactive) | 46.1 µM (inactive) | –
CCCCCC(C)C[C@H]1CO[C@H](c2ccc[nH]2)N[C@H]1C(=O)OC (some centres not stated) | > 100 µM (inactive) | > 100 µM (inactive) | > 100 µM (inactive) | > 100 µM (inactive) | > 100 µM (inactive) | > 100 µM (inactive) | > 100 µM (inactive) | – | > 100 µM (inactive) | > 100 µM (inactive) | > 100 µM (inactive) | > 100 µM (inactive) | > 100 µM (inactive) | > 100 µM (inactive) | > 100 µM (inactive) | > 100 µM (inactive) | > 100 µM (inactive) | > 100 µM (inactive) | > 100 µM (inactive) | –
CN(C)CCn1nc(N)c2nc3cc(C(F)(F)F)ccc3nc21 | > 100 µM (inactive) | > 100 µM (inactive) | 88.7 µM (inactive) | > 100 µM (inactive) | > 100 µM (inactive) | > 100 µM (inactive) | > 100 µM (inactive) | 15.5 µM (inactive) | – | > 100 µM (inactive) | 33.2 µM (inactive) | 75.9 µM (inactive) | > 100 µM (inactive) | > 100 µM (inactive) | > 100 µM (inactive) | > 100 µM (inactive) | 79.3 µM (inactive) | > 100 µM (inactive) | – | 31.3 µM (inactive)
Cc1ccc2[nH]c(=O)c(-c3cnc(O)nn3)c(O)c2c1 | 60.3 µM (inactive) | > 100 µM (inactive) | > 100 µM (inactive) | 86.7 µM (inactive) | 19.7 µM (inactive) | > 100 µM (inactive) | > 100 µM (inactive) | > 100 µM (inactive) | > 100 µM (inactive) | 3.4 µM (inactive) | 5.06 µM (inactive) | – | > 100 µM (inactive) | > 100 µM (inactive) | 17.8 µM (inactive) | 32.7 µM (inactive) | > 100 µM (inactive) | 26.4 µM (inactive) | 58.1 µM (inactive) | 16.6 µM (inactive)
COC1C(=O)N(SC)C1c1ccccc1Cl (configuration not stated) | 21.3 µM (inactive) | 20.3 µM (inactive) | > 100 µM (inactive) | > 100 µM (inactive) | 18.8 µM (inactive) | > 100 µM (inactive) | > 100 µM (inactive) | – | 19.6 µM (inactive) | 24.4 µM (inactive) | 9.62 µM (inactive) | 14.7 µM (inactive) | 22.8 µM (inactive) | 35.6 µM (inactive) | 16.7 µM (inactive) | 11.3 µM (inactive) | 14.6 µM (inactive) | 54.8 µM (inactive) | 19.6 µM (inactive) | 17.5 µM (inactive)
NC1=NC(c2ccc(Cl)cc2)N(c2ccc(S(=O)(=O)Nc3ncccn3)cc2)C(N)=N1 (configuration not stated) | > 100 µM (inactive) | > 100 µM (inactive) | > 100 µM (inactive) | > 100 µM (inactive) | > 100 µM (inactive) | > 100 µM (inactive) | > 100 µM (inactive) | > 100 µM (inactive) | > 100 µM (inactive) | > 100 µM (inactive) | 54.8 µM (inactive) | – | > 100 µM (inactive) | > 100 µM (inactive) | > 100 µM (inactive) | > 100 µM (inactive) | > 100 µM (inactive) | > 100 µM (inactive) | > 100 µM (inactive) | > 100 µM (inactive)
CC1Cn2c(nc3ccccc32)NC1=O (configuration not stated) | > 100 µM (inactive) | > 100 µM (inactive) | > 100 µM (inactive) | > 100 µM (inactive) | > 100 µM (inactive) | > 100 µM (inactive) | > 100 µM (inactive) | > 100 µM (inactive) | > 100 µM (inactive) | > 100 µM (inactive) | > 100 µM (inactive) | – | – | > 100 µM (inactive) | > 100 µM (inactive) | > 100 µM (inactive) | > 100 µM (inactive) | > 100 µM (inactive) | > 100 µM (inactive) | > 100 µM (inactive)
Oc1c(CN2CCN(c3ccccc3)CC2)cc(Br)c2cccnc12 | 1.46 µM (inactive) | 10.9 µM (inactive) | 3.33 µM (inactive) | 1.82 µM (inactive) | 0.621 µM (active) | 3.61 µM (inactive) | 7.46 µM (inactive) | 3.78 µM (inactive) | 2.07 µM (inactive) | 2.62 µM (inactive) | 0.349 µM (active) | – | 0.991 µM (active) | 2.33 µM (inactive) | 1.7 µM (inactive) | 0.448 µM (active) | 0.271 µM (active) | 1.01 µM (active) | 0.423 µM (active) | 0.393 µM (active)
Cn1c2ccccc2n2c3ncccc3c(=S)c(C#N)c12 | > 100 µM (inactive) | > 100 µM (inactive) | > 100 µM (inactive) | > 100 µM (inactive) | > 100 µM (inactive) | – | > 100 µM (inactive) | 40.3 µM (inactive) | – | > 100 µM (inactive) | > 100 µM (inactive) | > 100 µM (inactive) | > 100 µM (inactive) | > 100 µM (inactive) | > 100 µM (inactive) | > 100 µM (inactive) | > 100 µM (inactive) | > 100 µM (inactive) | > 100 µM (inactive) | > 100 µM (inactive)
COC(=O)/C=C1\C(=O)Nc2ccc(Br)cc21 | 1.87 µM (inactive) | 1.73 µM (inactive) | 4.04 µM (inactive) | 1.54 µM (inactive) | 1.71 µM (inactive) | 1.56 µM (inactive) | 5.22 µM (inactive) | 1.99 µM (inactive) | – | 1.77 µM (inactive) | 0.962 µM (active) | 2.22 µM (inactive) | 1.62 µM (inactive) | 2.51 µM (inactive) | 2.23 µM (inactive) | 1.36 µM (inactive) | 0.296 µM (active) | 1.56 µM (inactive) | 1.46 µM (inactive) | 2.19 µM (inactive)
Cc1nnc(-n2c(O)cc(=O)n(-c3ccccc3)c2=S)nc1/C=C/c1ccc(N(C)C)cc1 | 5.62 µM (inactive) | 5 µM (inactive) | 4.99 µM (inactive) | 8.36 µM (inactive) | 9.23 µM (inactive) | > 39.4 µM (inactive) | 27.1 µM (inactive) | 4.38 µM (inactive) | – | 9.23 µM (inactive) | 15.6 µM (inactive) | 6.49 µM (inactive) | > 43.5 µM (inactive) | > 35.6 µM (inactive) | 11.4 µM (inactive) | 11.9 µM (inactive) | 8.2 µM (inactive) | 6.53 µM (inactive) | – | 4.11 µM (inactive)
Cc1sc2nc(-c3ccc(Cl)c([N+](=O)[O-])c3)c(/C=N/NC(=N)N)n2c1C | 1.51 µM (inactive) | 1.35 µM (inactive) | 1.79 µM (inactive) | 1.73 µM (inactive) | 1.46 µM (inactive) | 1.75 µM (inactive) | 1.66 µM (inactive) | – | 1.64 µM (inactive) | 1.69 µM (inactive) | 1.5 µM (inactive) | 1.1 µM (active) | 1.31 µM (inactive) | 0.615 µM (active) | – | – | – | 1.79 µM (inactive) | 1.69 µM (inactive) | 1.65 µM (inactive)
CC1C(c2ccccc2O)c2cc3c(cc2OC1N1CCOCC1)OCO3 (configuration not stated) | 25.4 µM (inactive) | 26.9 µM (inactive) | 19.4 µM (inactive) | 32.4 µM (inactive) | 29.4 µM (inactive) | 30.3 µM (inactive) | 19.2 µM (inactive) | 27.8 µM (inactive) | 20.5 µM (inactive) | 34.3 µM (inactive) | 25.8 µM (inactive) | 25 µM (inactive) | 37.1 µM (inactive) | 29.9 µM (inactive) | – | 26.4 µM (inactive) | 20.7 µM (inactive) | 26.2 µM (inactive) | 22.6 µM (inactive) | 26.7 µM (inactive)
CCn1c2ccc(O)c(C(=O)OC)c2c2cc3ccccc3c(O)c21 | 17 µM (inactive) | 18.5 µM (inactive) | 7.89 µM (inactive) | 16.9 µM (inactive) | 12.6 µM (inactive) | 15.9 µM (inactive) | 13.1 µM (inactive) | – | 18.7 µM (inactive) | 35 µM (inactive) | 7.87 µM (inactive) | 22.2 µM (inactive) | 18.5 µM (inactive) | 23.2 µM (inactive) | 18.1 µM (inactive) | 12.6 µM (inactive) | 19 µM (inactive) | 23.2 µM (inactive) | 14.5 µM (inactive) | 22.5 µM (inactive)
O=C(OCCC12CC3CC(CC(C3)C1)C2)c1ccc(NCc2cc(O)ccc2O)cc1 | 1.26 µM (inactive) | 1.94 µM (inactive) | 0.213 µM (active) | 0.689 µM (active) | 1.63 µM (inactive) | 1.52 µM (inactive) | 1.9 µM (inactive) | 1.38 µM (inactive) | 0.652 µM (active) | 1.7 µM (inactive) | 0.262 µM (active) | – | 0.719 µM (active) | 1.88 µM (inactive) | 0.904 µM (active) | 1.26 µM (inactive) | 0.101 µM (active) | 1.61 µM (inactive) | 0.239 µM (active) | 0.376 µM (active)
